Earlier results as cited in US8435963B2, “Weight loss compositions and uses thereof” (priority 2008, dated 2013).
Counter-ions that a name gives are not always drawn. Like-named read-outs stand apart in the source and are kept apart here.

COC(=O)[C@@H]1[C@H]2C[C@H]3c4[nH]c5cc(O)ccc5c4CCN3C[C@@H]2CC[C@@H]1O [11-Hydroxy yohimbine]
half-life (human, in vivo): 8 to 11 h

COC(=O)[C@@H]1[C@H]2C[C@H]3c4[nH]c5ccccc5c4CCN3C[C@@H]2CC[C@@H]1O [yohimbine HCl, 17α-hydroxy-yohimban-16α-carboxylic acid methyl ester]
half-life (humans): 2.5 h
